According to patent US20060069132A1, “Azolecarboxamide herbicides” (priority 2004, published 2006):

Experiments:
[1] = tested on: barnyardgrass; experiment: Test C flooded paddy test; type: in vivo, Echinochloa crus-galli
Summary of the method: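 Weeds and wheat were sprayed after emergence, at a height of 2 to 18 cm (1–4 leaves), and paddy barnyardgrass was flooded and treated at two leaves. Assessment took place 12–14 days later in the greenhouse on a 0-to-100 visual control scale. A dash means no result was obtained.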

[2] = tested on: giant foxtail; experiment: Test C pre-/postemergence herbicide test; type: in vivo, Setaria faberi
Summary of the method: (§1)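 Pre- and postemergence application, solvent/surfactant formulation; post at 1- to 4-leaf stage (2–18 cm). Greenhouse 12–14 d. Visual rating vs controls, 0 = no effect, 100 = complete control.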

[3] = tested on: yellow nutsedge; experiment: Test C pre-/postemergence herbicide test; type: in vivo, Cyperus esculentus
Summary of the method: as §1

[4] = tested on: goosegrass; experiment: Test C pre-/postemergence herbicide test; type: in vivo, Eleusine indica
Summary of the method: as §1

[5] = tested on: ducksalad; experiment: Test C flooded paddy test; type: in vivo, Heteranthera limosa
[6] = tested on: velvetleaf; experiment: Test C pre-/postemergence herbicide test; type: in vivo, Abutilon theophrasti
Summary of the method: as §1

[7] = tested on: soybean; experiment: Test C pre-/postemergence herbicide test; type: in vivo, Glycine max
Summary of the method: as §1

[8] = tested on: large crabgrass; experiment: Test C pre-/postemergence herbicide test; type: in vivo, Digitaria sanguinalis
Summary of the method: as §1

[9] = tested on: pigweed; experiment: Test C pre-/postemergence herbicide test; type: in vivo, Amaranthus retroflexus
Summary of the method: as §1

[10] = tested on: common ragweed; experiment: Test C pre-/postemergence herbicide test; type: in vivo, Ambrosia elatior; parameters: key to Plant response rating, Ragweed: 0 = no effect, 100 = complete control
Summary of the method: as §1

[11] = tested on: giant foxtail; experiment: Test A pre-/postemergence herbicide test; type: in vivo, Setaria faberi
Summary of the method: (§2)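 Visual injury rating on a 0–100 scale (0 no effect, 100 complete control) versus untreated controls, about ten days after treatment in greenhouse. Pre: directed soil spray onto seeded sandy loam. Post: spray to runoff on plants 2–10 cm tall at one- to two-leaf stage.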

[12] = tested on: redroot pigweed; experiment: Test A pre-/postemergence herbicide test; type: in vivo, Amaranthus retroflexus
Summary of the method: as §2

[13] = tested on: morningglory; experiment: Test A pre-/postemergence herbicide test; type: in vivo, Ipomoea spp.
Summary of the method: as §2

[14] = 125 g ai/ha, scale 0 to 100 (0 no effect, 100 complete control)
[15] = 250 g ai/ha, scale of 0 to 100, 0 is no effect, 100 is complete control
[16] = 500 g ai/ha, visual rating after 12 to 14 days, scale 0 to 100 (0 no effect, 100 complete control)
[17] = 62 g ai/ha, preemergence, scale 0 to 100
[18] = 250 g ai/ha, scale 0-100, preemergence
[19] = 500 g ai/ha, scale 0 to 100 (0 no effect, 100 complete control), visual, 12 to 14 days, preemergence
[20] = Postemergence, 500 g ai/ha, 0 to 100 scale, 0 no effect, 100 complete control
[21] = Postemergence, 2000 g ai/ha, 0 to 100 scale, 0 no effect, 100 complete control
[22] = Preemergence, 500 g ai/ha, visual rating, 0 to 100 scale (0 no effect, 100 complete control)
[23] = Preemergence, 2000 g ai/ha, 0 to 100 scale, 0 no effect, 100 complete control
[24] = Postemergence, 500 g ai/ha, scale 0 to 100
[25] = Postemergence, 250 g ai/ha, scale 0 to 100, 0 no effect, 100 complete control
[26] = postemergence, 125 g ai/ha, scale 0 to 100
[27] = postemergence, 62 g ai/ha, scale 0 to 100
[28] = Preemergence, 2000 g ai/ha, visual rating, 0 to 100 scale (0 no effect, 100 complete control)
[29] = preemergence, 500 g ai/ha, visual injury, 0 to 100 scale (0 no effect, 100 complete control)

CCNC(=O)c1ccc(F)c(N(C(C)=O)C(=O)c2cc(C(C)(C)C)nn2CC)c1 [Compound 399]
Barnyardgrass plant response rating ([1]; 62 g ai/ha, scale 0 to 100 (0 no effect, 100 complete control)): 50
Barnyardgrass plant response rating [1, 14]: 65
Barnyardgrass plant response rating [1, 15]: 85
Plant response rating, Barnyardgrass [1, 16]: 90
Plant response rating, Foxtail, Giant [2, 17]: 95
Plant response rating (0 = no effect, 100 = complete control), Foxtail, Giant ([2]; 125 g ai/ha, preemergence): 100
Plant response rating, Foxtail, Giant [2, 18]: 100
Plant response rating, Foxtail, Giant [2, 19]: 100
Plant response rating, Nutsedge, Yellow [3, 17]: 45
Plant response rating (0 = no effect, 100 = complete control), Nutsedge, Yellow ([3]; 125 g ai/ha, preemergence): 75
Plant response rating, Nutsedge, Yellow [3, 19]: 95
Plant response rating, Goosegrass [4, 17]: 95
Plant response rating (0 = no effect, 100 = complete control), Goosegrass ([4]; 125 g ai/ha, preemergence): 100
Plant response rating, Goosegrass [4, 18]: 100
Plant response rating, Goosegrass [4, 19]: 100
Ducksalad plant response rating ([5]; 62 g ai/ha, scale 0 to 100): 75
Ducksalad plant response rating [5, 14]: 75
Ducksalad plant response rating [5, 15]: 85
Plant response rating, Ducksalad [5, 16]: 85
Plant response rating, Velvetleaf [6, 17]: 95
Plant response rating (0 = no effect, 100 = complete control), Velvetleaf ([6]; 125 g ai/ha, preemergence): 100
Plant response rating, Velvetleaf [6, 19]: 100
Plant response rating, Soybean [7, 17]: 75
Plant response rating (0 = no effect, 100 = complete control), Soybean ([7]; 125 g ai/ha, preemergence): 85
Plant response rating, Soybean [7, 19]: 100
Plant response rating, Crabgrass, Large [8, 17]: 100
Plant response rating (0 = no effect, 100 = complete control), Crabgrass, Large ([8]; 125 g ai/ha, preemergence): 100
Plant response rating, Crabgrass, Large [8, 18]: 100
Plant response rating, Crabgrass, Large [8, 19]: 100
Plant response rating, Pigweed [9, 17]: 100
Plant response rating (0 = no effect, 100 = complete control), Pigweed ([9]; 125 g ai/ha, preemergence): 100
Plant response rating, Pigweed [9, 19]: 100
Plant response rating, Ragweed [10, 17]: 95
Plant response rating (0 = no effect, 100 = complete control), Ragweed ([10]; 125 g ai/ha, preemergence): 100
Plant response rating, Ragweed [10, 19]: 100

C=CCOC(=O)c1cccc(NC(=O)c2cc(C(C)(C)C)nn2CC)c1 [Compound 85]
Foxtail, Giant plant response rating [11, 20]: 20
Plant response rating, Foxtail, Giant [11, 21]: 30
Foxtail, Giant plant response rating [11, 22]: 0
Foxtail, Giant plant response rating [11, 23]: 0
Pigweed plant response rating [12, 20]: 75
Plant response rating, Pigweed [12, 21]: 70
Pigweed plant response rating [12, 22]: 0
Pigweed plant response rating [12, 23]: 5
Morningglory plant response rating [13, 20]: 20
Plant response rating, Morningglory [13, 21]: 25
Morningglory plant response rating [13, 22]: 0
Morningglory plant response rating [13, 23]: 5
Foxtail, Giant plant response rating [2, 24]: 70
Plant response rating, Foxtail, Giant [2, 25]: 50
Plant response rating, Foxtail, Giant [2, 26]: 20
Plant response rating, Foxtail, Giant [2, 27]: 10
Nutsedge, Yellow plant response rating [3, 24]: 40
Plant response rating, Nutsedge, Yellow [3, 25]: 20
Plant response rating, Nutsedge, Yellow [3, 26]: 20
Plant response rating, Nutsedge, Yellow [3, 27]: 10
Goosegrass plant response rating [4, 24]: 60
Plant response rating, Goosegrass [4, 25]: 60
Plant response rating, Goosegrass [4, 26]: 40
Plant response rating, Goosegrass [4, 27]: 35
Velvetleaf plant response rating [6, 24]: 85
Plant response rating, Velvetleaf [6, 25]: 80
Plant response rating, Velvetleaf [6, 26]: 75
Plant response rating, Velvetleaf [6, 27]: 60
Soybean plant response rating [7, 24]: 95
Plant response rating, Soybean [7, 25]: 80
Plant response rating, Soybean [7, 26]: 60
Plant response rating, Soybean [7, 27]: 55
Crabgrass, Large plant response rating [8, 24]: 40
Plant response rating, Crabgrass, Large [8, 25]: 10
Plant response rating, Crabgrass, Large [8, 26]: 5
Plant response rating, Crabgrass, Large [8, 27]: 0
Pigweed plant response rating [9, 24]: 100
Plant response rating, Pigweed [9, 25]: 100
Plant response rating, Pigweed [9, 26]: 100
Plant response rating, Pigweed [9, 27]: 100
Ragweed plant response rating [10, 24]: 60
Plant response rating, Ragweed [10, 25]: 40
Plant response rating, Ragweed [10, 26]: 10
Plant response rating, Ragweed [10, 27]: 10

CCc1nn(C(C)(C)C)nc1C(=O)Nc1cccc(C(=O)NC2CC2)c1 [Compound 417]
Foxtail, Giant plant response rating [11, 20]: 75
Plant response rating, Foxtail, Giant [11, 21]: 85
Foxtail, Giant plant response rating [11, 28]: 100
Foxtail, Giant plant response rating [11, 29]: 90
Pigweed plant response rating [12, 20]: 100
Plant response rating, Pigweed [12, 21]: 100
Pigweed plant response rating [12, 28]: 100
Pigweed plant response rating [12, 29]: 95
Morningglory plant response rating [13, 20]: 70
Plant response rating, Morningglory [13, 21]: 85
Morningglory plant response rating [13, 28]: 80
Morningglory plant response rating [13, 29]: 20
Plant response rating, Foxtail, Giant [2, 17]: 65
Plant response rating (0 = no effect, 100 = complete control), Foxtail, Giant ([2]; 125 g ai/ha, preemergence): 90
Plant response rating, Foxtail, Giant [2, 18]: 95
Plant response rating, Foxtail, Giant [2, 19]: 100
Plant response rating, Nutsedge, Yellow [3, 17]: 0
Plant response rating (0 = no effect, 100 = complete control), Nutsedge, Yellow ([3]; 125 g ai/ha, preemergence): 0
Plant response rating, Nutsedge, Yellow [3, 19]: 0
Plant response rating, Goosegrass [4, 17]: 95
Plant response rating (0 = no effect, 100 = complete control), Goosegrass ([4]; 125 g ai/ha, preemergence): 100
Plant response rating, Goosegrass [4, 18]: 100
Plant response rating, Goosegrass [4, 19]: 100
Plant response rating, Velvetleaf [6, 17]: 75
Plant response rating (0 = no effect, 100 = complete control), Velvetleaf ([6]; 125 g ai/ha, preemergence): 100
Plant response rating, Velvetleaf [6, 19]: 100
Plant response rating, Soybean [7, 17]: 0
Plant response rating (0 = no effect, 100 = complete control), Soybean ([7]; 125 g ai/ha, preemergence): 0
Plant response rating, Soybean [7, 19]: 40
Plant response rating, Crabgrass, Large [8, 17]: 100
Plant response rating (0 = no effect, 100 = complete control), Crabgrass, Large ([8]; 125 g ai/ha, preemergence): 100
Plant response rating, Crabgrass, Large [8, 18]: 100
Plant response rating, Crabgrass, Large [8, 19]: 100
Plant response rating, Pigweed [9, 17]: 100
Plant response rating (0 = no effect, 100 = complete control), Pigweed ([9]; 125 g ai/ha, preemergence): 100
Plant response rating, Pigweed [9, 19]: 100
Plant response rating, Ragweed [10, 17]: 0
Plant response rating (0 = no effect, 100 = complete control), Ragweed ([10]; 125 g ai/ha, preemergence): 20
Plant response rating, Ragweed [10, 19]: 90
